| Compound | melting point [°C] |
| --- | --- |
| ON=C(c1ccc(F)cc1)c1cccc2nc(N[C@@H]3CCc4ccccc43)ccc12 | 184 |
| O=C(O)c1ccc(N2CCOCC2)cc1C(=O)O | 178 to 180 |
| Cc1scc2c1N(C(=O)Cl)c1ccccc1NC2=O | 238 to 239 |
| Cc1ccc(-c2ccc(C(=O)Nc3ccc4nc(CN5CCCC5)ccc4c3)cn2)cc1 | 207 to 209 |
| Cc1nnc2n1-c1ccc(C#CCN3C(=O)C(=O)c4ccccc43)cc1C(c1ccccc1Cl)=NC2 | 210 to 212 |
| O=C(O)c1cccc(-n2c(-c3ccccc3)cc3c2CCCC3)c1 | 191 to 193 |
| CCCCNC(=S)N1CCc2[nH]cnc2C1CC (configuration not stated) | 180 |
| Clc1ncc(-c2nc(Cl)nc(Cl)c2Br)c(Cl)n1 | 136 to 138 |
| C=CCOc1c(C(C)=O)ccc(OCCCOc2ccc3cc(C(=O)OC)oc3c2C)c1CCC | 80 to 83 |
| CCCCCCC(C)(C)c1ccc([C@@H]2CC(=O)C[C@@H](O)C2)c(OCc2ccccc2)c1 (relative stereo) | 95 |
| CN1C(=O)CC[C@]2(C)c3ccc(CCc4ccc5ccccc5c4)cc3CC[C@@H]12 | 109 to 110 |
| O=C(O)CNC(=O)C=C(c1ccc(Cl)cc1)c1ccc(Cl)cc1 | 166 to 168 |
| Oc1ccc(SCc2cc(O)c(O)c(O)c2)cc1 | 158 |
| CCOC(=O)CNC(=O)CC(=O)CCl | 96 to 97 |
| COc1ccccc1N1CCN(C(=O)[C@@H](Cc2ccncc2)NC(=O)OC(C)(C)C)CC1 | 105 |
| CCCOc1nc(O)ns1 | 92 |
| Cc1oc(-c2ccco2)nc1COc1ccc(COc2nn(-c3ccccc3)cc2C=O)cc1 | 148 to 149 |
| CCC1c2nc[nH]c2CCN1C(=O)NC (configuration not stated) | 240 |
| CCC(Cl)C(=O)Nc1c(C(=O)CC(=O)Nc2nccs2)cccc1C(F)(F)F (configuration not stated) | 170 |
| NNC(=O)NN=Cc1ccc(Cl)cc1 | 188 to 189 |

| Compound | melting point [°C] |
| --- | --- |
| O=C(CCl)Nc1nc2cc3nc(NC(=O)CCl)sc3cc2s1 | 330 |
| Cc1cccc(-c2nscc2C(=O)O)c1 | 144 to 146 |
| C[C@@H]([C@H]1CO1)[C@](O)(Cn1cncn1)c1ccc(F)cc1F (relative stereo) | 160 to 180 |
| O=C(N[C@H](Cc1ccccc1C(F)(F)F)[C@@H](O)c1ccc(F)cc1)c1cccc2ccccc12 (racemic) | 193 to 194 |
| COc1ccc(Oc2cccnc2)cc1C#CC(C)N(O)C(N)=O (configuration not stated) | 153 to 154 |
| CCN1C(=O)Cc2ccc(C(O)CCl)c(O)c21 (configuration not stated) | 141 to 147 |
| CC(CO)N1CCN(c2cccc3c2OCCO3)CC1 (configuration not stated) | 91 to 92 |
| N#Cc1cnccc1O | 234 to 236 |
| CCC(C)(C)c1ccc(OCCCCNC(=O)c2[nH]c3ccc(OC)cc3c2N)c(C(C)(C)CC)c1 | 145 to 146 |
| CC(C)(C)OC(=O)CN1CC(c2cccs2)SCC(N2C(=O)c3ccccc3C2=O)C1=O (configuration not stated) | 151 to 152 |
| CN(C)C(=O)c1c(CNS(=O)(=O)c2cccc(Cl)c2)nn(-c2ccc(Cl)cc2Cl)c1-c1ccc(Cl)cc1 | 178 |
| CC1(CNC(=O)OCc2ccccc2)Cn2cc([N+](=O)[O-])nc2O1 (configuration not stated) | 171 to 172 |
| CCCn1cc(-c2c(-c3ccccc3)nn3ccncc23)ccc1=O | 165 to 166 |
| Brc1nnnn1Cc1ccccc1 | 54 |
| O=C(O)c1cn(-c2ccc(OC(F)(F)F)c(Cl)c2)cn1 | 230 to 231 |
| CC(=O)OC1C(c2ccccc2)=C(c2ccc(S(C)(=O)=O)cc2)C1(C)C (configuration not stated) | 60 to 61 |
| Cc1cccc(C(=O)NC(C)C)c1NC(=O)c1cc(C(F)(F)F)nn1-c1ncccc1Cl | 194 to 196 |
| CCOC(=O)c1cnc2c(cnn2CC)c1NN=C(C)CC#N | 190 to 191 |
| O=c1nc(-c2ccccc2)c2cc([N+](=O)[O-])ccc2n1CC12CC3CC(CC(C3)C1)C2 | 228 to 231 |

Second part, the compound after the results:

| melting point [°C] | Compound |
| --- | --- |
| 112 | CCOC(=O)c1ccc(NCc2nccnc2OCc2ccccc2)cc1 |
| 190 to 193 | CC(C)C(NC(=O)OCc1ccncc1)C(=O)NC(Cc1ccccc1)C(O)C(O)C(Cc1ccccc1)NC(=O)C(NC(=O)OCc1ccncc1)C(C)C (configuration not stated) |
| 130 to 135 | COC(=O)c1ccc(S(C)(=O)=O)c(C2=NOC(C)C2)c1Cl (configuration not stated) |
| 148 to 149 | O=C(C=Cc1cccnc1)C=Cc1cccnc1 |
| 160 to 162 | N#Cc1cc(C2CCCO2)nn1-c1ccc(NC(=O)c2ccncc2F)cc1 (configuration not stated) |
| 65 to 67 | CCCCCCCCCCCCCCOc1ccc(CN(C(C)=O)c2cccc(CO)c2)cc1 |
| 173 | O=C(O)c1cc(C(F)(F)F)cc([N+](=O)[O-])c1Cl |
| 164 | CC(C)C1NC(c2ccccc2)=NNC1=O (configuration not stated) |
| 160 to 162 | O=Cc1cc(Br)c(O)c(OCc2ccccc2)c1 |
| 149 | CCOc1ccc2[nH]c(=O)n(C(C)(C)COC)c2c1 |
| 126 to 127 | C=C(C)C(=O)Oc1ccc(N(C)S(C)(=O)=O)cc1 |
| 146 to 147 | COc1cc(C(C)C)c2c(c1)S(=O)(=O)N(COc1cc(C)nn1C)C2=O |
| 127 to 129 | CCOc1cc2c(cc1OCC)CCC(C(=O)N1CCN(C(=O)c3cc(OC)c(OC)c(OC)c3)CC1)=C2 |
| 106 to 109 | CC(=O)Nc1ccc(OC(=O)COCc2ccccc2)cc1 |
| 203 to 207 | CC(CCC(=O)N(Cc1ccccc1)Cc1ccccc1)(c1ccc(O)cc1)c1ccc(O)cc1 |
| 35 to 37 | CCOC(=O)c1cnn2c1CCC2 |
| 180 to 182 | CCOC(=O)c1nc(N)sc1-c1nc2ccccn2c1C |

| melting point [°C] | Compound |
| --- | --- |
| 91 to 92 | COC(=O)c1cc(C(=O)OC)cc(-c2ccccc2)c1 |
| 227 to 229 | O=C(Nc1ccc(Cl)nc1)c1cccc(Cl)c1 |
| > 250 | CC[C@@H](C)[C@H](N)C(=O)N1CC(F)(F)C(F)(F)C1 |
| 208 to 210 | Nc1ccn(C2CC(O)C(CO)O2)c(=O)n1 (configuration not stated) |
| 142 to 144 | CC#COc1ccc2c(=O)c3ccccc3oc2c1 |
| 264 to 266 | Cc1[nH]c(C(=O)N2CCC(C(=O)N(C)CCN(C)C)CC2)c(C)c1-c1nc2ccc(C(=O)c3ccccc3)cc2[nH]1 |
| 190 to 192 | O=c1[nH]c(-c2cccnc2O)nc2ccccc12 |
| 116 to 117 | O=Cc1ccccc1-c1noc2cc(Cl)ccc12 |
| 189 to 191 | COc1ccc(N2CCOCC2)cc1NC(=S)c1nc2ccc(C)nc2[nH]1 |
| 148 | CC(CI)CCCC(C)C1CC=C2C3=C(CCC21C)C1(C)CCC(O)C(C)(C)C1CC3 (configuration not stated) |
| 121 to 122 | COC(=O)c1cc(OCc2cc(SC)cc(SC)c2)cc(OCc2cc(SC)cc(SC)c2)c1 |
| 112 to 113 | Cc1nnc(-c2ccc3occ(-c4cccc(F)c4F)c3c2)o1 |
| 297 to 298 | COc1ccc(-n2cc(C(=O)O)c3nc4c(C)cccc4cc3c2=O)cc1OC |
| 132 to 134 | COC(=O)COc1cccc(CN(C)c2cnc(-c3ccccc3)c(-c3ccccc3)n2)c1 |
| 203 to 205 | COC(=O)COc1c(I)cc(-c2c3ccccc3cc3sc4ccccc4c23)cc1I |
| 215 to 218 | Nc1ncc(C#Cc2ccc(Cl)cc2)c(N[C@H]2CC[C@H](O)CC2)n1 |

Source: a melting point compilation (Tetko et al.; mined from patent text by program, amines drawn as free bases though some values may be those of a salt)
